PMC11329928, “Design, synthesis and structure-activity relationship (SAR) studies of an unusual class of non-cationic fatty amine-tripeptide conjugates as novel synthetic antimicrobial agents” (Frontiers in Pharmacology, 2024)
“And” between values parts separate entries of the source, which are not always exact repeats. Equal values may be shown once. Where a name gives a salt, the structure may show the parent alone.

How the values were obtained:
[1] = RP-HPLC retention time used to determine hydrophobicity; format: physicochemical; conditions: analytical RP-HPLC, C18 Sunfire column (4.6 mm × 150 mm, 3.5 μm); A = 0.05% TFA in water, B = acetonitrile; 10% to 100% B in 20 min then isocratic 100% B 10 min; 217 and 254 nm; used as measure of hydrophobicity
Experimental: The purity of the lipopeptides was checked by analytical RP-HPLC on an Agilent Infinity instrument equipped with a Diode Array and a C18 Sunfire column (4.6 mm × 150 mm, 3.5 μm). As mobile phase A:B mixtures were used, where A = 0.05% TFA in water and B = acetonitrile. The samples were analyzed at 217 and 254 nm in a gradient from 10% of B to 100% of B in 20 min followed by isocratic 100% of B in 10 min.
Retention times were used to determine the hydrophobicity ([Neubauer et al., 2020]). HRMS (EI+) was carried out in an Agilent 6,520 Accurate-Mass Q-TOF LC/MS spectrometer using water/acetonitrile mixtures. Results can be found in Supplementary Section S3, S4.

[2] = tested on: S. pyogenes T; test: Dose dependence of bacterial viability (CFU counting, Hill fit); format: cell-based, Streptococcus pyogenes; conditions: for SC (stationary concentration, Δlog = 0), S. pyogenes T / EC50 / Δlogmax, S. pyogenes T: 2 h treatment, Hill fit; for SC (stationary concentration, Δlog = 0), S. pyogenes T: BHI medium, added at T1, 10^7–10^8 CFU/mL, CFU vs untreated controls; for SC (stationary concentration, Δlog = 0), S. pyogenes T / EC50 / Decrease of the number of viable bacteria in the inoculum within 2 h / Δlogmax, S. pyogenes T: 37°C; for EC50 / Decrease of the number of viable bacteria in the inoculum within 2 h / Δlogmax, S. pyogenes T: BHI; for EC50: read-out: K 1/2 (concentration yielding half-variation in Δlogmax), S. pyogenes T (converted); for Decrease of the number of viable bacteria in the inoculum within 2 h: S. pyogenes T; for Reduction of bacterial viability at 3 × SC, S. pyogenes T: after 2 h of incubation at 3 × SC; for Δlogmax, S. pyogenes T: maximum variation in viability
Text: First, the substitution of the fatty amino chain of 18 carbon atoms of the reference compound DICAM 2 by either an OMe group (methylated tripeptide DICAM 5) or an amine with 12 carbon atoms (DICAM 9) abolished the activity against all three pathogens. However, the activity remained intact when the chain of the fatty amine of prototypes DICAMs 1 and 4 was two carbon atoms shorter (DICAM 10 and DICAM 12, respectively), based on S. pneumoniae and S. pyogenes results. […] Third, Glu and Ala were tolerated as C-terminal residues of the lipotripeptides. […] In addition, deletion of the C-terminal Glu (DICAM 13) eradicated the activity against S. pneumoniae and S. aureus. However, a delay and small inhibition of S. pyogenes ^T growth was still observed. Fourth, Glu (DICAMs 19 and 20) and Orn (DICAMs 21 and 22) were tolerated as N-terminal residues, with the impact of these modifications being pathogen-dependent. […] SAR studies continued by measuring the dose dependence of DICAM’s activity at T1 with all the compounds found to be active against S. pyogenes or S. aureus in the initial screening, and all but one compound in the case of S. pneumoniae. The OD values of bacterial cultures were monitored after DICAM addition, and the decrease in the number of viable bacteria was measured relative to controls (Figures 4–6; Supplementary Figure S1). As antibacterial efficacy may decline with the bacterium dose in the inoculum ([Belley et al., 2009]; [Udekwu et al., 2009]; [Luca et al., 2013]), the assays were performed using the bacterial concentrations necessary for the fluorescence experiments in Section 2.3 (10^7–10^8 CFU/mL). At these high bacterial densities, MICs were determined as the DICAM concentration at which bacteria neither grow nor are killed (the stationary concentration (SC)), following [Udekwu et al., 2009]. By fitting the logarithmic plot of cell viability decrease vs. the DICAM dose to a Hill function (see Section 5.2.3.1) we were able to determine the maximum variation in viability (Δlogmax = ∆log f - ∆log 0, where ∆log f and ∆log 0 are the upper and lower limits of Δlog) in the assay conditions, the SC concentration (Δlog = 0), the dose required for half-variation in Δlogmax (K 1/2), and the cooperativity of the antimicrobial effect (N H).
Susceptibility to DICAMs was first tested by growth-inhibition assays at 50 and 100 μM of compound. Briefly, working solutions at 5 mM or 10 mM DICAM in pure DMSO were prepared from DICAM stocks (40 mM in pure DMSO) and diluted with fresh culture medium to 5× the desired final concentration. Aliquots (50 µL) of these solutions were added to 200 µL of bacterium cultures grown to early exponential phase (OD550/600 c. a. 0.15–0.2 in sterile 96-well plates (Cultek, Spain). Incubation continued for 10 h at 37°C and turbidity (OD550/600) values were measured every 20 min to monitor growth and lysis, using a VersaMax microplate reader (Molecular Devices; United Kingdom). Next, the activity dependence on DICAM’s dose was examined by measuring the turbidity of treated and untreated cultures as a function of time. Also, the decay of bacterial viability (CFU/mL) at selected times of treatment was assessed by colony counting on LB-agar or TSA plates after overnight incubation at 37°C. By default, 10 μL of 10-fold serially diluted samples were plated, which set the lower detection limit at 10^2 CFU/mL (10^1 CFU/mL when 100 μL of the undiluted sample was seeded).
As antibacterial efficacy may decline with the bacterium dose in the inoculum ([Belley et al., 2009]; [Udekwu et al., 2009]; [Luca et al., 2013]), activity assays were performed using the bacterial concentrations required for the fluorescence experiments in Section 2.3 (10^7–10^8 CFU/mL). At such bacterial densities, MICs were determined as the DICAM concentration at which bacteria neither grow nor are killed under assay conditions (the stationary concentration (SC)), as indicated in Section 2.2. […]

[3] = tested on: human HeLa cervix carcinoma cells; format: cell-based; conditions: 48 h
Experimental: (§1) DICAM’s cytotoxicity was determined employing a modified MTT assay as described elsewhere ([Antúnez-Mojica et al., 2016]) using human lung carcinoma epithelial cells A549, human fetal lung fibroblasts IMR-90, and human HeLa cervix carcinoma cells treated with increasing concentrations of DICAMs (0.8–200 µM range). A549 cells were grown in RPMI 1640 (Gibco; Fisher Scientific, Spain) supplemented with 10% FCS, 2 mM glutamine, 100 IU/mL penicillin and 100 μg/mL streptomycin. IMR-90 and HeLa cells were cultured in DMEM (Gibco; Fisher Scientific, Spain) supplemented with 10% FCS, 2 mM L-glutamine, 1 mM pyruvate, […] penicillin, 100 μg/mL streptomycin and 40 μg/mL gentamycin. Cell viability was assessed after 48 h exposure to DICAMs. Vinblastine was used as a positive control. IC50 value is the concentration that gives 50% inhibition of cell growth and was determined using SigmaPlot (Systat) fitting to a Four Parameter Logistic curve.

[4] = tested on: human lung carcinoma epithelial cells A549; format: cell-based; conditions: 48 h
Experimental: as §1

SMILES	Retention time [1]	SC (stationary concentration, Δlog = 0), S. pyogenes T [2]	EC50 [2]	Decrease of the number of viable bacteria in the inoculum within 2 h [2]	Reduction of bacterial viability at 3 × SC, S. pyogenes T [2]	Δlogmax, S. pyogenes T [2]	IC50 [3]	IC50 [4]
CCCCCCCCCCCCCCCCCCNC(=O)[C@H](CCC(=O)O)NC(=O)[C@H]1CCCN1C(=O)[C@H](C)NC(=O)OCc1ccccc1 [DICAM 3, Cbz-Ala- Pro -Glu-NH-C18H37]	21.42 min	3–5 µM and 3.0 ± 0.4 µM	8.1 ± 0.4 µM	99.9–99.99%	94.5%–99.9	5.4 ± 0.1 logarithmic units	49.2 ± 1.5 µM	59.2 ± 0.7 µM
CCCCCCCCCCCCCCCCCCNC(=O)[C@H](CCC(=O)O)NC(=O)[C@H]1CCCN1C(=O)[C@H](C)NC(C)=O [DICAM 24, Ac-Ala- Pro -Glu-NH-C18H37]	21.23 min		7.2 ± 0.4 µM	99.9–99.99%	94.5%–99.9	5.3 ± 0.1 logarithmic units	28.4 ± 0.2 µM	40 ± 3 µM
CCCCCCCCCCCCCCCCCCNC(=O)[C@H](CCC(=O)O)NC(=O)[C@H]1CCCN1C(=O)[C@@H](N)CCC(=O)O [DICAM 20, Glu- Pro -Glu-NH-C18H37 · HCl]	18.71 min	8 ± 2 µM	17 ± 4 µM			∼3.0 logarithmic units	59.2 ± 0.1 µM	91 ± 2 µM
CCCCCCCCCCCCCCCCCCNC(=O)[C@H](CCC(=O)O)NC(=O)[C@H]1CCCN1C(=O)[C@H](CCC(=O)O)NC(=O)OCc1ccccc1 [DICAM 19, Cbz-Glu- Pro -Glu-NH-C18H37]	21.22 min	4−5 µM and 3.8 ± 0.9 µM	7.1 ± 0.8 µM		94.5%–99.9	3.0 ± 0.2 logarithmic units	46 ± 2 µM	45 ± 2 µM
CCCCCCCCCCCCCCCCNC(=O)[C@H](CCC(=O)O)NC(=O)[C@H]1CCCN1C(=O)[C@H](CC(N)=O)NC(=O)OCc1ccccc1 [DICAM 10, Cbz-Asn- Pro -Glu-NH-C16H33]	18.23 min		6.8 ± 0.7 µM			2.6 ± 0.1 logarithmic units	28 ± 0.7 µM	35 ± 2 µM
CCCCCCCCCCCCCCCCCCNC(=O)[C@H](CCC(=O)O)NC(=O)[C@H]1CCCN1C(=O)[C@H](CC(N)=O)NC(=O)OCc1ccccc1 [DICAM 1, Cbz-Asn- Pro -Glu-NH-C18H37]	21.41 min		8.3 ± 0.9 µM			2.5 ± 0.1 logarithmic units	29 ± 2 µM	45 ± 6 µM
